# Data reported in the supplement of paper PMC10307832.
# Tests used:
# Assay in all cases: relative viability (nuclei count vs DMSO), 5 days (fraction); higher = more cells survive
# 201T = system: 201T
# Outline: (§1)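 Lung cancer cell lines, seeded in 1536-well plates, were treated the following day by pin tool with a single drug or with five library-drug doses (not always all listed) in √10 steps on top of a fixed anchor-drug dose. Cells were fixed and nuclei stained in one step after 5 days, and nuclei were counted. Relative viability is the nuclei count for treated wells divided by that for vehicle wells, reported as medians of duplicate plates.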
# A-427 = system: A-427
# Outline: as §1
# COR-L23 = system: COR-L23
# Outline: as §1
# H3255 = system: H3255
# Outline: as §1
# LCLC-103H = system: LCLC-103H
# Outline: as §1
# LCLC-97TM1 = system: LCLC-97TM1
# Outline: as §1
# LK-2 = system: LK-2
# Outline: as §1
# LU99A = system: LU99A
# Outline: as §1
# NCI-H1563 = system: NCI-H1563
# Outline: as §1
# NCI-H1650 = system: NCI-H1650
# Outline: as §1
# NCI-H1651 = system: NCI-H1651
# Outline: as §1
# NCI-H1944 = system: NCI-H1944
# Outline: as §1
# NCI-H2347 = system: NCI-H2347
# Outline: as §1
# NCI-H23 = system: NCI-H23
# Outline: as §1
# NCI-H460 = system: NCI-H460
# Outline: as §1
# NCI-H650 = system: NCI-H650
# Outline: as §1
# NCI-H727 = system: NCI-H727
# Outline: as §1
# NCI-H838 = system: NCI-H838
# Outline: as §1
# PC-14 = system: PC-14
# Outline: as §1
# PC-3 [JPC-3] = system: PC-3 [JPC-3]
# Outline: as §1
# RERF-LC-KJ = system: RERF-LC-KJ
# Outline: as §1
# SW 1573 = system: SW 1573
# Outline: as §1
compound,measurement,setting,value
COc1cc(N2CCC(C(N)=O)CC2)ccc1Nc1nc(N)c(Cl)c(Nc2ccccc2S(=O)(=O)C(C)C)n1 [HG-5-88-01] + C[C@@H](Oc1cc(-c2cnn(C3CCNCC3)c2)cnc1N)c1c(Cl)ccc(F)c1Cl [Crizotinib] (partner 1 µM),relative viability,201T; first compound 0.04 µM,1
same,relative viability,201T; first compound 0.1265 µM,0.846
same,relative viability,201T; first compound 0.4 µM,1.03
same,relative viability,201T; first compound 1.265 µM,0.986
same,relative viability,201T; first compound 4 µM,1.11
same,relative viability,A-427; first compound 0.04 µM,0.93
same,relative viability,A-427; first compound 0.1265 µM,0.952
same,relative viability,A-427; first compound 0.4 µM,0.951
same,relative viability,A-427; first compound 1.265 µM,0.843
same,relative viability,A-427; first compound 4 µM,0.791
same,relative viability,COR-L23; first compound 0.04 µM,0.651
same,relative viability,COR-L23; first compound 0.1265 µM,0.588
same,relative viability,COR-L23; first compound 0.4 µM,0.645
same,relative viability,COR-L23; first compound 1.265 µM,0.584
same,relative viability,COR-L23; first compound 4 µM,0.389
same,relative viability,H3255; first compound 0.04 µM,0.844
same,relative viability,H3255; first compound 0.1265 µM,0.949
same,relative viability,H3255; first compound 0.4 µM,0.833
same,relative viability,H3255; first compound 4 µM,0.308
same,relative viability,LCLC-103H; first compound 0.04 µM,0.987
same,relative viability,LCLC-103H; first compound 0.1265 µM,0.955
same,relative viability,LCLC-103H; first compound 0.4 µM,0.95
same,relative viability,LCLC-103H; first compound 1.265 µM,0.923
same,relative viability,LCLC-103H; first compound 4 µM,0.985
same,relative viability,LCLC-97TM1; first compound 0.04 µM,0.461
same,relative viability,LCLC-97TM1; first compound 0.1265 µM,0.379
same,relative viability,LCLC-97TM1; first compound 0.4 µM,0.359
same,relative viability,LCLC-97TM1; first compound 1.265 µM,0.23
same,relative viability,LCLC-97TM1; first compound 4 µM,0.239
same,relative viability,LK-2; first compound 0.04 µM,0.24
same,relative viability,LK-2; first compound 0.1265 µM,0.227
same,relative viability,LK-2; first compound 0.4 µM,0.234
same,relative viability,LK-2; first compound 1.265 µM,0.249
same,relative viability,LK-2; first compound 4 µM,0.21
same,relative viability,LU99A; first compound 0.04 µM,0.554
same,relative viability,LU99A; first compound 0.1265 µM,0.615
same,relative viability,LU99A; first compound 0.4 µM,0.511
same,relative viability,LU99A; first compound 1.265 µM,0.491
same,relative viability,LU99A; first compound 4 µM,0.423
same,relative viability,NCI-H1563; first compound 0.04 µM,0.917
same,relative viability,NCI-H1563; first compound 0.1265 µM,0.88
same,relative viability,NCI-H1563; first compound 0.4 µM,0.832
same,relative viability,NCI-H1563; first compound 1.265 µM,0.806
same,relative viability,NCI-H1563; first compound 4 µM,0.854
same,relative viability,NCI-H1650; first compound 0.04 µM,1.04
same,relative viability,NCI-H1650; first compound 0.1265 µM,1.01
same,relative viability,NCI-H1650; first compound 0.4 µM,0.948
same,relative viability,NCI-H1650; first compound 1.265 µM,0.817
same,relative viability,NCI-H1650; first compound 4 µM,0.373
same,relative viability,NCI-H1651; first compound 0.04 µM,0.866
same,relative viability,NCI-H1651; first compound 0.1265 µM,0.828
same,relative viability,NCI-H1651; first compound 0.4 µM,0.808
same,relative viability,NCI-H1651; first compound 1.265 µM,0.713
same,relative viability,NCI-H1651; first compound 4 µM,0.942
same,relative viability,NCI-H1944; first compound 0.04 µM,1.09
same,relative viability,NCI-H1944; first compound 0.1265 µM,1.13
same,relative viability,NCI-H1944; first compound 0.4 µM,1.09
same,relative viability,NCI-H1944; first compound 1.265 µM,0.82
same,relative viability,NCI-H1944; first compound 4 µM,1.06
same,relative viability,NCI-H2347; first compound 0.04 µM,0.779
same,relative viability,NCI-H2347; first compound 0.1265 µM,0.81
same,relative viability,NCI-H2347; first compound 0.4 µM,0.834
same,relative viability,NCI-H2347; first compound 1.265 µM,0.634
same,relative viability,NCI-H2347; first compound 4 µM,0.744
same,relative viability,NCI-H23; first compound 0.04 µM,0.542
same,relative viability,NCI-H23; first compound 0.1265 µM,0.43
same,relative viability,NCI-H23; first compound 0.4 µM,0.481
same,relative viability,NCI-H23; first compound 1.265 µM,0.471
same,relative viability,NCI-H23; first compound 4 µM,0.26
same,relative viability,NCI-H460; first compound 0.04 µM,0.83
same,relative viability,NCI-H460; first compound 0.1265 µM,1.06
same,relative viability,NCI-H460; first compound 0.4 µM,0.851
same,relative viability,NCI-H460; first compound 1.265 µM,0.843
same,relative viability,NCI-H460; first compound 4 µM,0.0524
same,relative viability,NCI-H650; first compound 0.04 µM,0.812
same,relative viability,NCI-H650; first compound 0.1265 µM,0.739
same,relative viability,NCI-H650; first compound 0.4 µM,0.579
same,relative viability,NCI-H650; first compound 1.265 µM,0.519
same,relative viability,NCI-H650; first compound 4 µM,0.398
same,relative viability,NCI-H727; first compound 0.04 µM,0.931
same,relative viability,NCI-H727; first compound 0.1265 µM,0.937
same,relative viability,NCI-H727; first compound 0.4 µM,0.827
same,relative viability,NCI-H727; first compound 1.265 µM,0.492
same,relative viability,NCI-H727; first compound 4 µM,0.585
same,relative viability,NCI-H838; first compound 0.04 µM,0.799
same,relative viability,NCI-H838; first compound 0.1265 µM,0.868
same,relative viability,NCI-H838; first compound 0.4 µM,0.641
same,relative viability,NCI-H838; first compound 1.265 µM,0.571
same,relative viability,NCI-H838; first compound 4 µM,0.596
same,relative viability,PC-14; first compound 0.04 µM,0.863
same,relative viability,PC-14; first compound 0.1265 µM,0.972
same,relative viability,PC-14; first compound 0.4 µM,0.914
same,relative viability,PC-14; first compound 1.265 µM,0.783
same,relative viability,PC-14; first compound 4 µM,0.238
same,relative viability,PC-3 [JPC-3]; first compound 0.04 µM,0.983
same,relative viability,PC-3 [JPC-3]; first compound 0.1265 µM,1.03
same,relative viability,PC-3 [JPC-3]; first compound 0.4 µM,1.07
same,relative viability,PC-3 [JPC-3]; first compound 1.265 µM,0.937
same,relative viability,PC-3 [JPC-3]; first compound 4 µM,0.64
same,relative viability,RERF-LC-KJ; first compound 0.04 µM,0.816
same,relative viability,RERF-LC-KJ; first compound 0.1265 µM,0.816
same,relative viability,RERF-LC-KJ; first compound 0.4 µM,0.81
same,relative viability,RERF-LC-KJ; first compound 1.265 µM,0.782
same,relative viability,RERF-LC-KJ; first compound 4 µM,0.535
same,relative viability,SW 1573; first compound 0.04 µM,0.806
same,relative viability,SW 1573; first compound 0.1265 µM,0.848
same,relative viability,SW 1573; first compound 0.4 µM,0.907
same,relative viability,SW 1573; first compound 1.265 µM,0.568
same,relative viability,SW 1573; first compound 4 µM,0.475
